Literature values as cited in patent publication US20220168301A1, “METHODS FOR TREATING SYMPTOMATIC ORTHOSTATIC HYPOTENSION” (Cerecor Inc, priority 2019, published 2022).

Tested on: patients with nOH
Settings: Phase III clinical trials; cited from earlier work

N[C@H](C(=O)O)[C@H](O)c1ccc(O)c(O)c1 [droxidopa, L-threo-3,4-dihydroxyphenyl-serine]
Standing systolic blood pressure: increase in standing systolic blood pressure
Symptoms of nOH (dizziness, lightheadedness or feeling about to faint): significant improvement in symptoms of nOH
